What was measured:
[1] = tested on: primary human fibroblasts derived from IPF patients (LL29 cells) treated with TGF-β1; α-smooth muscle actin (αSMA); experiment: Inhibition of the fibrotic process: αSMA staining in TGF-β1 treated primary human fibroblasts from IPF patients (LL29 cells); format: cell-based; conditions: Fibroblast, 96 h, TGF-β1 20 ng/mL, 4 days; for EC50: % cells positive for αSMA
Summary of the method: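 LL29 cells plated in F12 with 1% FBS, compounds added as 11-point 1:2 series (10 μM to 1.87 nM, 0.1% DMSO), then TGF-β1 20 ng/mL; 4 days at 37 °C. Fixed, αSMA immunostained, imaged; SYTOX-positive cells excluded. % αSMA-positive cells normalized to TGF-β1 wells; EC50 by non-linear regression, or % inhibition at 10 μM.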

[2] = tested on: primary human mesenchymal stem cells (hMSCs); experiment: Induction of chondrogenesis in primary human mesenchymal stem cells (chondrogenic nodules); format: cell-based; conditions: 144 h, 6 days; for EC50: concentration required to induce 50% levels of chondrogenesis of TGF-β3 positive control, read-out: Conc (nM) of 50% TGF-β3 activity; for Emax: nodules, relative to TGF-β3 (10 ng/mL) positive control, read-out: Max. Activity as % TGF-β3 activity
Protocol: Representative compounds were screened using primary human mesenchymal stem cells (hMSCs) to determine their ability to induce chondrogenesis (process by which cartilage is developed).
Primary human mesenchymal stem cells (hMSCs) were purchased from Lonza (Walkersville, Md.) and expanded in Mesenchymal Stem Cell Growth Media (Lonza). Cells between passage 3 and 6 were used for the experiments.
Each compound was dissolved in DMSO as a 10 mM stock and used to prepare compound source plates. Serial dilution (1:3, 6-point dose-response curves from 2700 nM to 10 nM) and compound transfer was performed using the ECHO 550 (Labcyte, Sunnyvale, Calif.) into 96-well clear bottom assay plates (Greiner Bio-One) with appropriate DMSO backfill for a final DMSO concentration of 0.03%. hMSCs were plated at 20,000 cells/well in 250 μL/well Incomplete Chondrogenic Induction Medium (Lonza; DMEM, dexamethasone, ascorbate, insulin-transferrin-selenium [ITS supplement], gentamycin-amphotericin [GA-1000], sodium pyruvate, proline and L-glutamine). TGF-β3 (10 ng/mL) was used as a positive control for differentiation while negative control wells were treated with 75 nL DMSO for normalization and calculating EC50 values. Cells were incubated at 37° C. and 5% CO2 for 6 days. To image chondrogenic nodules, the cells were fixed using 4% formaldehyde (Electron Microscopy Sciences), and stained with 2 μg/mL Rhodamine B (Sigma-Aldrich) and 20 μM Nile Red (Sigma-Aldrich) [Johnson K., et. al, A Stem Cell-Based Approach to Cartilage Repair, Science, (2012), 336(6082), 717-721]. The nodules imaged (4 images per well at 4× magnification) by excitation at 531 nm and emission at 625 nm and quantified using the CellInsight CX5 (Thermo Scientific). Number of nodules in each well was normalized to the average of 3 DMSO treated wells on the same plate using Excel (Microsoft Inc.). The normalized averages (fold change over DMSO) of 3 replicate wells for each compound concentration were calculated. Due to solubility limitations of some of the compounds, curve fitting was incomplete leading to inaccurate EC50 determinations.
Using TGF-β3 as a positive control, the concentration of representative compounds required to induce 50% levels of chondrogenesis is reported. In addition, the maximum activity of each compound and the respective dose that each compound reached maximum chondrogenesis activity is reported.

Compound: CCNCc1cncc(-c2cc3c(-c4cc5c(-c6cc(F)cc(NCCN(C)C)c6)cccc5[nH]4)n[nH]c3cn2)c1 [Compound 454, N^1-(3-(2-(5-(5-((Ethylamino)methyl)pyridin-3-yl)-1H-pyrazolo[3,4-c]pyridin-3-yl)-1H-indol-4-yl)-5-fluorophenyl)-N^2,N^2-dimethylethane-1,2-diamine]
- EC50 [1]: 583 nM
- EC50 [2]: 30 nM
- Emax [2]: 294%

Compound: CN(C)CCNc1cc(F)cc(-c2cccc3[nH]c(-c4n[nH]c5cnc(-c6cncc(NC(=O)C(C)(C)C)c6)cc45)cc23)c1 [Compound 456, N-(5-(3-(4-(3-((2-(Dimethylamino)ethyl)amino)-5-fluorophenyl)-1H-indol-2-yl)-1H-pyrazolo[3,4-c]pyridin-5-yl)pyridin-3-yl)pivalamide]
- EC50 [1]: 444 nM
- EC50 [2]: 10 nM
- Emax [2]: 87%

Compound: CN(C)CCNc1cc(F)cc(-c2cccc3[nH]c(-c4n[nH]c5cnc(-c6cncc(CN(C)C)c6)cc45)cc23)c1 [Compound 461, N^1-(3-(2-(5-(5-((Dimethylamino)methyl)pyridin-3-yl)-1H-pyrazolo[3,4-c]pyridin-3-yl)-1H-indol-4-yl)-5-fluorophenyl)-N^2,N^2-dimethylethane-1,2-diamine]
- EC50 [1]: 1180 nM
- Emax [2]: 52%

Compound: CN(C)CCNc1cc(F)cc(-c2cccc3[nH]c(-c4n[nH]c5cnc(-c6ccccn6)cc45)cc23)c1 [Compound 476, N^1-(3-Fluoro-5-(2-(5-(pyridin-2-yl)-1H-pyrazolo[3,4-c]pyridin-3-yl)-1H-indol-4-yl)phenyl)-N^2,N^2-dimethylethane-1,2-diamine]
- EC50 [1]: 582 nM
- EC50 [2]: 10 nM
- Emax [2]: 89%

Compound: Cc1ccncc1-c1cc2c(-c3cc4c(-c5cc(F)cc(CNS(C)(=O)=O)c5)cccc4[nH]3)n[nH]c2cn1 [Compound 481, N-(3-Fluoro-5-(2-(5-(4-methylpyridin-3-yl)-1H-pyrazolo[3,4-c]pyridin-3-yl)-1H-indol-4-yl)benzyl)methanesulfonamide]
- EC50 [1]: 712 nM
- EC50 [2]: 900 nM
- Emax [2]: 152%

Compound: CS(=O)(=O)NCc1cc(F)cc(-c2cccc3[nH]c(-c4n[nH]c5cnc(-c6cncnc6)cc45)cc23)c1 [Compound 503, N-(3-Fluoro-5-(2-(5-(pyrimidin-5-yl)-1H-pyrazolo[3,4-c]pyridin-3-yl)-1H-indol-4-yl)benzyl)methanesulfonamide]
- EC50 [1]: > 10000 nM
- inhibition at 10 µM ([1]; αSMA, 10 μM, read-out: percent inhibition at 10 μM (given for EC50 of >10 μM)): 0%
- EC50 [2]: 900 nM
- Emax [2]: 102%

Compound: CN(C)CCOc1cncc(-c2cc3c(-c4cc5c(-c6cccnc6)cccc5[nH]4)n[nH]c3cn2)c1 [Compound 591, N,N-Dimethyl-2-((5-(3-(4-(pyridin-3-yl)-1H-indol-2-yl)-1H-pyrazolo[3,4-c]pyridin-5-yl)pyridin-3-yl)oxy)ethan-1-amine]
- EC50 [1]: 2190 nM
- Emax [2]: 36%

Compound: Cn1cc(-c2cc3c(-c4cc5c(-c6ccncc6)cccc5[nH]4)n[nH]c3cn2)cn1 [Compound 600, 5-(1-Methyl-1H-pyrazol-4-yl)-3-(4-(pyridin-4-yl)-1H-indol-2-yl)-1H-pyrazolo[3,4-c]pyridine]
- EC50 [1]: 13 nM
- EC50 [2]: 300 nM
- Emax [2]: 138%

Compound: O=C(CC1CCNCC1)Nc1cncc(-c2cc3c(-c4cc5c(-c6ccccn6)cccc5[nH]4)n[nH]c3cn2)c1 [Compound 621, 2-(Piperidin-4-yl)-N-(5-(3-(4-(pyridin-2-yl)-1H-indol-2-yl)-1H-pyrazolo[3,4-c]pyridin-5-yl)pyridin-3-yl)acetamide]
- EC50 [1]: 3140 nM
- Emax [2]: 57%

Compound: CN(C)CCNc1cc(F)cc(-c2cccc3[nH]c(-c4n[nH]c5cnc(-c6cncc(O)c6)cc45)cc23)c1 [Compound 817, 5-(3-(4-(3-((2-(Dimethylamino)ethyl)amino)-5-fluorophenyl)-1H-indol-2-yl)-1H-pyrazolo[3,4-c]pyridin-5-yl)pyridin-3-ol]
- EC50 [1]: 519 nM
- EC50 [2]: 10 nM
- Emax [2]: 66%
